The values that follow are results of earlier work, collected in patent US7419990B2, “Piperidine derivatives as melanocortin-4 receptor agonists” (Merck & Co., Inc., priority 2003, dated 2008).

Data set [1] relates to erectile dysfunction. To be noted: for duration of effect / onset of action: after an oral dose; for share of patients with adequate response: oral.
Data set [2] has as its system psychogenic erectile dysfunction.

As to `CCCc1nn(C)c2c(=O)[nH]c(-c3cc(S(=O)(=O)N4CCN(C)CC4)ccc3OCC)nc12` [sildenafil], in data set [1], the duration of effect result is recorded as “about 4 hours”, the onset of action is 30 to 60 min and the “share of patients with adequate response” value was “about 70%”.

With `Cc1ccc(N(CC2=NCCN2)c2cccc(O)c2)cc1` [phentolamine], in data set [1], the duration of effect was 2 h, the onset of action was 5 to 30 min and the “share of patients with adequate response” value was 35-40%.

“Ac-Nle-c[Asp-His-DPhe-Arg-Trp-Lys]-NH2 [MT-II]”: in data set [2] (in vivo), the duration of action entry is “approximately 2.5 hours” and the “time to onset of erection” value is 10 to 20 min. Besides, the response rate in data set [2] (injected intramuscularly or subcutaneously) is 75%. Also, the “absorption into the systemic circulation” value in data set [2] (oral route) is given as “not absorbed into the systemic circulation”.
